# Laboratory results from US20090117123A1, “IMMU[…] HPV E6 AND E7 PROTEINS” (National Health Research Institutes, priority 2007, published 2009).
# Legend:
# [1] = tested on: splenocytes from HLA-A11/K^b transgenic mice; experiment: IFN-γ ELISPOT of peptide-stimulated splenocytes from DNA plasmid-immunized mice; assay type: cell-based, mouse; details: splenocytes of mice immunized i.m. with plasmid pE3/19K/HPV18E6E7, stimulated with the peptide; FIG. 7A
# Procedure: (§1) A 96-well plate, having nitrocellulose membrane inserted in each well, was coated with […] anti-IFN-γ antibody (clone MAB1-D1K, 10 μg/ml in 1×PBS, from Mabtech, Macka, Sweden) and was incubated at 4° C. for 24 hours. The plate was washed four times with PBS, and then incubated with […] per well RPMI medium containing 10% fetal bovine serum (FBS) for 1-3 hours. Next, splenocytes were suspended in RPMI containing 10% FBS and 1×10^5 or 5×10^5 splennocytes (200 μl) were added to each well with or without A11VVY. The ELISPOT assay was performed in triplicate wells for each experimental condition. The plate was incubated in an incubator supplied with 5% CO2 at 37° C. for 2 hours. After being washed for 2-3 times, the plate was incubated with avidin-peroxidase complex reagent for one hour at room temperature and then washed three times with 0.05% (w/v) Tween 20 in PBS and three times with PBS. 100 μl aminoethylcarbazole staining solution were then added to each well to develop stained spots. After 4-6 minutes, the plate was washed with running tap water to stop the reaction of developing the spots, which were counted by a computational image analysis.
# Plasmid pE3/19K/HPV18E6E7 was constructed following the conventional recombinant technology. This plasmid contains the E3/19K leader sequence and a nucleotide sequence encoding a fusion protein composed of the H-2K^b-restricted CTL epitope SII (derived from ovalbumin) and HPV18E6E7 polypeptide, which includes epitopes VVY, SIP, and ATL.
# (§2) Seven to ten days after the second immunization, the mice were sacrificed and their splenocytes collected.
# The splenocytes werestimulated with peptide VVY, SII, SIP, ATL, or a control peptide and the levels of IFN-γ secreted thereby were determined with the Enzyme-linked immunospot (ELISPOT) assay described in Example 1 above.
# [2] = tested on: ^51Cr-labeled T2/HLA-A11 cells; experiment: Chromium release assay with splenocytes from peptide-immunized mice; assay type: in vivo, mouse; details: HLA-A11 transgenic mice immunized twice with the peptide; FIG. 6B
# Procedure: (§3) Next, the CTL effect induced by peptide VVY was examined as follows. HLA-A11 transgenic mice were immunized twice with peptide VVY, SIP, or ATL, all of which were derived from HPV 18, following the procedures described above in this Example. Splenocytes (2×10^6/ml) isolated from the immunized mice were cultured with 10 μg/ml of either VVY or A11-SCC and 10 U/ml rIL-2 for at 37+ C. for 5 days. A standard chromium release assay was performed to determine cytolytic activity. In brief, T2/HLA-A11 cells were labeled with 100 μCi of ^51Cr (PerkinElmer, Waltham, Mass., USA) for 1.5 hrs at 37° C. and washed afterwards three times with cold RPMI. The cultured splenocytes, used as effector cells, were mixed with 5×10^3 the ^51Cr-labeled T2/HLA-A11 cells at various ratios in triplicate wells in a U-bottom 96-well plate (Nunc, Rochester, N.Y., USA). After 4-5 hrs incubation, supernatants from each well were collected and the radioactivity contained therein was measured using a γ-counter (PARKARD, Ramsey, Mich., USA). The specific lysis rate was determined following the formula: Specific lysis rate (%)=(Samplecpm−Spontaneous releasecpm)/(Maximum releasecpm−Spontaneous releasecpm)%.
# [3] = tested on: T cells of HLA-A24 transgenic mice; experiment: IFN-γ secretion of splenocytes from peptide-immunized HLA-A24 transgenic mice; assay type: in vivo, mouse; details: HLA-A24 transgenic mice immunized with peptide; FIG. 5B
# Procedure: FIG. 5B is a diagram showing IFN-γ secretion of splenocytes obtained from HLA-A24 transgenic mice immunized with peptide […] (A24 CYE, SEQ ID NO:5) or a control peptide.
# as §1
# [4] = tested on: HLA A24 heavy chain and β2-microglobulin; experiment: MHC-peptide complex formation assay (ELISA), HLA A24; assay type: binding
# Procedure: The HLA A24 heavy chain and β2-microglobulin were expressed and purified following the method described above. These proteins were incubated with synthetic peptides containing potential CTL-epitopes identified by the computational programs mentioned in Example 1. The formation of HLA A24-β2-peptide complexes was determined by the ELISA assay also described in Example 1 above.
# [5] = tested on: ^51Cr-labeled T2/HLA-A11 cells; experiment: Chromium-release assay, peptide-specific CTL effects after DNA plasmid immunization; assay type: cell-based, mouse; details: mice immunized with plasmid pE3/19K/HPV18E6E7; FIG. 7B
# Procedure: as §3, §2
# Next, peptide-specific CTL effects were examined by the chromium-release assay described in Example 4 above.
# [6] = tested on: CD8^+ T cells of C57BL/6-HLA-A11 transgenic mice; experiment: HLA-A11-peptide tetramer staining of CD8+ T cells from peptide-immunized mice; assay type: in vivo, mouse; details: HLA-A11 transgenic mice immunized s.c. twice; splenocytes cultured 5 days with peptide and rIL-2; FIG. 6A
# Procedure: C57BL/6-HLA-A11 transgenic mice were immunized s.c. twice with peptide VVY (SEQ ID NO:1) or control peptide SSC (SEQ ID NO:12) together with a T helper cell epitope […] (SEQ ID NO:17), and incomplete adjuvant ISA-51. Seven days after the second immunization, splenocytes were harvested from the immunized mice, cultivated in vitro in the presence of peptide VVY or SSC (10 μg/ml) and rIL-2 (10 U/ml) for five days. The cells were then double stained with HLA-A11-peptide tetramer VVY-tet-PE or SCC-tet-PE and a FITC-conjugated anti-CD8 antibody to detect CD8^+ T cells that bind to either VVY or SSC.
# The tetramers were prepared as follows. Purified HLA-A11 heavy chains and β2-microglobulins were refolded in the presence of VVY or SSC in a refolding buffer containing 100 mM Tris-HCl (pH 8), 400 mM L-arginine, 2 mM EDTA, 5 mM reduced glutathione, 0.5 mM oxidized glutathione for 48 hrs at 4° C. […]
# The tetramers thus prepared were incubated with the peptide-challenged T cells in a FACS staining buffer for 20 min at room temperature and a FITC conjugated anti-CD8 antibody was then added to the incubation system and kept on ice for 20 min. The stained cells were analyzed by flow cytometry (FACScalibur BD Bioscience, Calif., USA) in the presence of 1 μg/ml of propidium iodide (Sigma, Mo., USA) to exclude dead cells.
# [7] = tested on: splenocytes from C57BL/6-HLA-A11 transgenic mouse; experiment: IFN-γ ELISPOT of splenocytes from peptide-immunized HLA-A11 transgenic mouse; assay type: in vivo; details: HLA-A11 transgenic mouse immunized s.c. with peptide, ISA-51 and T helper epitope; FIG. 5A
# Procedure: C57BL/6-HLA-A11 transgenic mouse, derived from the Animal Technology Institute in Taiwan, was used in this study. 50 μg synthetic peptides having the amino acid sequence of […] (A11VVY; SEQ ID NO:1) were formulated with incomplete adjuvant ISA-51 in the presence of a peptide […] (SEQ ID NO:17), which contains a T helper cell epitope derived from hepatitis B virus. The composition thus formed was injected subcutaneously into the HLA-A11 transgenic mouse two times every two weeks. Seven days after the final injection, splenotyes from the immunized mouse were isolated and cultured in a medium containing A11VVY. The level of IFN-γ secreted to the medium was determined by Enzyme-linked immunospot (ELISPOT) as described below.
# A 96-well plate, having nitrocellulose membrane inserted in each well, was coated with […] anti-IFN-γ antibody (clone MAB1-D1K, 10 μg/ml in 1×PBS, from Mabtech, Macka, Sweden) and was incubated at 4° C. for 24 hours. The plate was washed four times with PBS, and then incubated with […] per well RPMI medium containing 10% fetal bovine serum (FBS) for 1-3 hours. […] After 4-6 minutes, the plate was washed with running tap water to stop the reaction of developing the spots, which were counted by a computational image analysis.
# [8] = target: HLA A11 heavy chain (His-Tag fusion) with β2-microglobulin (human); experiment: MHC-peptide complex formation assay, ELISA; relative to positive and negative control O.D.
substance,measurement,setting,value
ATLQDIVLH (listed as Human papillomavirus) [peptide derived from HPV 18],induction of IFN-γ secretion,[1],not
same,CTL effects (specific lysis),[2],not
CYEQLGDSS (listed as Human papillomavirus) [24-32 of HPV 52 E7],IFN-γ secretion by peptide-specific T cells,[3],incuded A24CYE-specific T cells to secrete IFN-γ
same,HLA A24 restriction (HLA A24-β2-peptide complex formation),[4],HLA A24 restricted epitopes
RAHYNIVTF (listed as Human papillomavirus) [control peptide],peptide-specific CTL effects,[5],not
same,induction of IFN-γ secretion,[1],not
SIINFEKL (listed as Mus musculus),peptide-specific CTL effects,[5],not
same,induction of IFN-γ secretion,[1],induced IFN-γ secretion
SIPHAACHK (listed as Human papillomavirus) [peptide derived from HPV 18],induction of IFN-γ secretion,[1],not
same,CTL effects (specific lysis),[2],not
"SSCSSCPLSK (listed as Human herpesvirus) [A11-SCC, positive control A11-restricted peptide derived from EBV LMP2 protein]",induction of VVY-specific CD8^+ T cells (tetramer staining),[6],did not show this effect
VDLLCHEQL (listed as Human papillomavirus) [23-31 of HPV 18 E7],HLA A24 restriction (HLA A24-β2-peptide complex formation),[4],HLA A24 restricted epitopes
VVYRDSIPH (listed as Human papillomavirus) [54-62 of HPV 18 E6],peptide-specific CTL effects,[5],induced CTL effects
same,induction of IFN-γ secretion,[1],induced IFN-γ secretion
same,IFN-γ secreting splenocytes,[7],large amount
same,induction of VVY-specific CD8^+ T cells (tetramer staining),[6],induced VVY-specific CD8^+ T cells
same,CTL effects (specific lysis),[2],induced CTL effects
"WLSLLVPFV [A2-restricted peptide, used as control peptide for immunization]",IFN-γ secreting splenocytes,[7],little
… (54-62 of HPV 18 E6) (peptide),relative binding %,[8],30%
… (64-72 of HPV 52 E6) (peptide),relative binding %,[8],30%
… (94-102 of HPV 58 E6) (peptide),relative binding %,[8],30%
